This assay concerns Trichophyton violaceum. The assay can be described thus: growth of strains streaked on Sabouraud agar containing the products. Type of assay: cell-based. To be noted: Tric.Violaceum; for activity at 10 µg/mL: read-out: % DE CROISSANCE; for inhibition at 2 µg/mL / inhibition at 10 µg/mL / inhibition at 20 µg/mL / inhibition at 50 µg/mL: read-out: inhibition de la croissance.

Among the data in EP1096933B1, “USE OF AN INHIBITOR OF CYTOCHROME P450 OPTIONALLY COMBINED WITH AN ANTIFUNGAL AGENT FOR TREATING MYCOSES” (priority 1998, dated 2000) are activity and inhibition values, retold here.

Where two headings read alike, the source gives them in different places.

On to `CCCCOCCOCCOCc1cc2c(cc1CCC)OCO2` [Piperonyl., pipéronyl butoxyde], for which the activity at 10 µg/mL was found to be 0% (0 h, J0, 10µg/ml each product); 0% (96 h, J4, 10µg/ml each product); 15% (144 h, J6, 10µg/ml each product); 35% (240 h, J10, 10µg/ml each product); 35% (336 h, J14, 10µg/ml each product). For the same molecule, the inhibition at 2 µg/mL stood at 25% (J+4, 2 µg/ml); 90% (J+10, 2 µg/ml); 100% (J+14, 2 µg/ml). In addition, the inhibition at 10 µg/mL is, setting by setting: (J+4, 10 µg/ml) 0%; (J+10, 10 µg/ml) 35%; (J+14, 10 µg/ml) 35%. For the same molecule, the inhibition at 20 µg/mL stood at 0% (J+4, 20 µg/ml); 15% (J+10, 20 µg/ml); 25% (J+14, 20 µg/ml). Also, the inhibition at 50 µg/mL was determined as 0% (J+4, 50 µg/ml); 0% (J+10, 50 µg/ml); 0% (J+14, 50 µg/ml).

As a reminder, the inhibition is the drop in the measured response relative to a control, in per cent.
